{"source": "paper PMC4222822", "about": "“Discovery and Characterization of a Potent and Selective Inhibitor of Aedes aegypti Inward Rectifier Potassium Channels” (PLoS ONE, 2014)", "key": {"[1]": {"target": "AeKir2B (Aedes aegypti, UniProt L0EQ40)", "sequence (L0EQ40 entry or part of it)": "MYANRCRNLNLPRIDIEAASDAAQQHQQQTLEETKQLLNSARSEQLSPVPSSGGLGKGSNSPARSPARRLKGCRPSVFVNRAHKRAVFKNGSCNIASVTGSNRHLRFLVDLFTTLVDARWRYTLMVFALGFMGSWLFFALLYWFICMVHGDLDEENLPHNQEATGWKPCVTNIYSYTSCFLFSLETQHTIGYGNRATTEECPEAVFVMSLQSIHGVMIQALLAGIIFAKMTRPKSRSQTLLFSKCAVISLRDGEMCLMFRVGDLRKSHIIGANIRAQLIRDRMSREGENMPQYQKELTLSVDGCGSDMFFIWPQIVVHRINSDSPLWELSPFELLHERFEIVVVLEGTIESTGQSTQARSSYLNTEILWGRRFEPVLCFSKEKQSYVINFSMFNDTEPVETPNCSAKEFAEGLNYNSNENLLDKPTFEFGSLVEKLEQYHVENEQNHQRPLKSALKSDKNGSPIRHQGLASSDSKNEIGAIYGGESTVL", "assay": "Two-electrode electrophysiology of Xenopus oocytes expressing AeKir2B", "assay_type": "cell-based", "conditions": "inward current at −140 mV, 95% CI: 31.7–64.2 µM, n = 4–5 oocytes per concentration, read-out: IC50 of AeKir2B current inhibition", "experimental": "AeKir1 and AeKir2B channels were expressed heterologously in Xenopus laevis oocytes as described previously. In brief, defolliculated Xenopus oocytes (purchased from Ecocyte Bioscience, Austin, TX) were injected with 10 ng (0.35 ng/nL) of either AeKir1 or AeKir2B cRNA and cultured for 3–7 days in OR3 media at 18°C. Oocytes injected with 28 nl of nuclease-free H2O served as controls.\nAll electrophysiological experiments on Xenopus oocytes were performed at room temperature. When present, VU625 was dissolved in solution III or solution V to a final concentration of 0.1, 1, 5, 15, or 50 µM (0.05% DMSO). All solutions were delivered by gravity to a RC-3Z oocyte chamber (Warner Instruments, Hamden, CT) via polyethylene tubing at a flow rate of ∼2 ml/min. Solution changes were made with a Rheodyne Teflon 8-way Rotary valve (Model 5012, Rheodyne, Rohnert Park, CA).\nElectrophysiological recordings from oocytes were conducted as described previously In brief, each oocyte was transferred to the holding chamber under superfusion with solution I and impaled with two conventional-glass microelectrodes backfilled with 3 M KCl (resistances of 0.5–1.5 MΩ) to measure membrane potential (Vm) and whole-cell membrane current (Im), respectively. […] All Vm and Im values were recorded by a Digidata 1440A Data Acquisition System (Molecular Devices) and the Clampex module of pCLAMP. […]"}, "[2]": {"target": "T1, adenosine A1 receptor (Homo sapiens, UniProt P30542)", "T1 sequence (P30542 1-326)": "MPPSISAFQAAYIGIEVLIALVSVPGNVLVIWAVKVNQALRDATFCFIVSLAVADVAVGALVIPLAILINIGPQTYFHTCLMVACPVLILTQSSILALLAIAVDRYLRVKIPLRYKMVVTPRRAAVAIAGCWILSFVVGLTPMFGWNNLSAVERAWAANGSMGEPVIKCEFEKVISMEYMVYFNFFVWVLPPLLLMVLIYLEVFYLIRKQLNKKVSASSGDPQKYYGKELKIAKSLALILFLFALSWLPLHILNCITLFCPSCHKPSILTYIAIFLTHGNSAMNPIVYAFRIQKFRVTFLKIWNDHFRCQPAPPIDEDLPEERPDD", "assay": "Radioligand displacement assay, adenosine A1 receptor", "assay_type": "binding, mammalian", "conditions": "10 µM VU625"}, "[3]": {"system": "adult female mosquitoes (A. aegypti)", "assay": "Mosquito toxicology experiments (hemolymph injection)", "assay_type": "in vivo, Aedes aegypti", "experimental": "The Aedes aegypti mosquito colony used in the present study is identical to that described previously. As before, only adult female mosquitoes 3–10 days post emergence were utilized for experiments.\nAdult female mosquitoes for injection were anesthetized on ice and impaled through the metapleuron using a pulled-glass capillary attached to a nanoliter injector (Nanoject II, Drummond Scientific Company, Broomall, PA). Each mosquito received a single hemolymph injection of 69 nL of solution. The injection solution consisted of a potassium-rich phosphate buffered saline (K^+-PBS), 15% DMSO, 1% β-cyclodextrin, 0.1% Solutol, and a concentration of VU625 to deliver the doses indicated. In experiments where probenecid was used, water-soluble probenecid (Biotium, Hayward CA) was included in the injection solution at 50 mM, thereby providing a dose of 3.4 nmol per mosquito.\nThe K^+-PBS solution consisted of the following in mM: 92.2 NaCl, 47.5 KCl, 10 Na2HPO4, and 2 KH2PO4 (pH 7.5). A total of 10 mosquitoes were injected for a given treatment or dose, and then were placed into small cages within a rearing chamber (28°C, 80% relative humidity, 12∶12 light:dark) and allowed free access to a solution of 10% sucrose. […] For each treatment, 3–7 replicates of 10 mosquitoes each were performed.\nPrism (GraphPad Software) was used to generate a dose-response curve for the toxicity of VU625; the doses (x-axis) were first log transformed and then the mortality data was normalized using Prism, where the smallest value and largest values in a data set equal ‘0%’ and ‘100%’, respectively. The data were then fitted using a ‘biphasic’ algorithm (<100 constraint) to calculate potencies (ED25 and ED75 values). To compare 1) the toxic effects among the vehicle, probenecid, VU625, and VU625 + probenecid treatments, and 2) the excretory capacity among the vehicle, probenecid, VU625, and VU625 + probenecid treatments, one-way ANOVAs were performed with Newman-Keuls posttests."}, "[4]": {"conditions": "co-injected with probenecid 3.4 nmol per mosquito, mortality at 24 h post-injection, biphasic fit"}}, "data": [{"smiles": "CCC(=O)N1c2ccc(S(=O)(=O)Nc3cccc(OC)c3)cc2CC1C", "note": "(stereo not shown) [VU625, N-(3-methoxyphenyl)-2-methyl-1-propionylindoline-5-sulfonamide]", "values": [{"measurement": "IC50", "setting": "[1]", "value": 45.1, "unit": "µM"}, {"measurement": "radioligand displacement", "setting": "[2]", "value": 76, "unit": "%"}, {"measurement": "effect on mosquito behavior or survival", "setting": "[3]; 690 pmol per mosquito, hemolymph injection, alone, 24 h", "value": "no significant effects on mosquito behavior or survival within 24 h"}, {"measurement": "toxicity on co-injection with probenecid", "setting": "[3]; VU625 690 pmol + probenecid 3.4 nmol per mosquito, 24 h, vs VU625 or probenecid alone", "value": "significantly increases the toxicity of VU625 within 24 h"}, {"measurement": "ED25 (mortality)", "setting": "[3]; [4]", "value": 9.96, "unit": "pmol"}, {"measurement": "ED75 (mortality)", "setting": "[3]; [4]", "value": 502, "unit": "pmol"}, {"measurement": "efficacy of VU625 with PBO", "setting": "[3]; preliminary experiments with PBO", "value": "did not improve the efficacy"}]}]}
